Marks after values point to notes of the source that are not given here.
Legend:
TgCRND8 mice [1] = experiment: TgCRND8 mice therapeutic dosing (5-6 months): synaptic density; format: in vivo; details: therapeutic dosing regimen 5-6 months, p<0.001
Aβ42 [2] = biological target: T1, Aβ42 (Homo sapiens, UniProt P05067); experiment: TgCRND8 mice 2 month ad libitum treatment from 5 months: brain and plasma Aβ42 ELISA; format: in vivo; details: 2 month treatment ad libitum 10 mg/ml from 5 months of age
T1 construct: Levels of Aβ42 in brain homogenates were assessed by ELISA; from tissue; host or cells: brain homogenate (and plasma) of TgCRND8 transgenic mice
T1 sequence (P05067 672-713): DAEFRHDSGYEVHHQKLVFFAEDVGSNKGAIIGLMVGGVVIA

clinical = details: human, in vivo
From the text: Dose levels were escalated between cohorts, such that the first cohort received the lowest dose level, the middle cohorts received intermediate dose levels, and the final cohort received the highest proposed dose level. Dose escalation was dependent on a review of safety data from the previously dosed cohort. […] Dosing started with the lowest dose and escalated to the highest dose. […] Subjects received their single dose of study drug on the study day 1 (Day 1). Throughout the day on Day 1, subjects were monitored for safety and PK samples were drawn. On Day 2, subjects were monitored for safety and PK samples were drawn.

[3] = Competition of scyllo-inositol uptake by myo-inositol after single oral gavage (FIG. 17); format: in vivo; details: co-administration of 0, 50, 200 or 400 μg of myo-inositol
Protocol: FIG. 17. A competition assay with myo-inositol to compete scyllo-inositol uptake, following a single oral gavage dose was examined. (A) Plasma 3^H-scyllo-inositol levels following co-administration of 0, 50, 200 or 400 μg of myo-inositol. Myo-inositol loading appears to alter the kinetics of oral scyllo-inositol uptake in a dose-dependent manner.

TgCRND8 mice [4] = experiment: TgCRND8 mice therapeutic dosing (5-6 months): Morris Water Maze; format: in vivo
plaque burden = experiment: TgCRND8 mice therapeutic dosing (5-6 months): plaque burden; format: in vivo; details: TgCRND8 mice dosed 5-6 months age, 28 days, 10 mg/ml in drinking water
Aβ plaque burden = experiment: TgCRND8 mice 2 month ad libitum treatment from 5 months: Aβ plaque burden; format: in vivo; details: 2 months ad libitum from 5 months
TgCRND8 mice [5] = experiment: TgCRND8 effective dose range (0.3-3.3 mg/kg/day, 3 to 4 months): Morris Water Maze; format: in vivo; details: for effect on cognitive dysfunction and plaque burden: oral gavage twice daily
Protocol: The highest possible dose level of scyllo-cyclohexanehexyl compound was administered in a CRND8 mouse model. […]8 mice were dosed for 28 days from 3 to 4 months of age, i.e. a time when the disease phenotype would be newly established. This study design was selected to enhance the efficiency of the study (dose earlier) and maximise the information obtained (dose at a time when changes are of sufficient magnitude to detect a treatment effect). […] Cognitive function and plaque burden were assessed. • Improvement of cognitive function: Animals were assessed using the Morris Water Maze at 4 months (FIG. 11). […] This path length was similar to that observed in previous experiments in mice dosed with the compound in drinking water ad libitum. […] Thus a clear dose response was observed.

[6] = tested on: rats infused intracerebroventricularly; experiment: Cognitive dysfunction in rats infused intracerebroventricularly with Aβ oligomers; format: in vivo, rat; details: rats infused icv with oligomers
Protocol: More complex systems provide support for 5 μM (0.9 μg/mL) as an effective local concentration of the scyllo-cyclohexanehexyl. […] The effectiveness of this concentration was confirmed in acute cognitive dysfunction study in rats. In the clinic, effective local concentrations of a scyllo-cyclohexanehexyl will need to be achieved following oral dosing. Three studies have examined the effective dose range of a scyllo-cyclohexanehexyl following oral dosing. […] In rats infused intracerebroventricularly (icy) with All oligomers, approximately 30 mg/kg/day (the lowest dose administered orally) provided effective alleviation of cognitive dysfunction. Therefore, considering 2 species, different animal ages and different endpoints, a dose level ranging between 3-30 mg/kg/day has consistently shown efficacy.

long term potentiation = experiment: Long term potentiation experiments with amyloid oligomer; details: amyloid oligomer concentration 1-2 nM
Protocol: More complex systems provide support for 5 μM (0.9 μg/mL) as an effective local concentration of the scyllo-cyclohexanehexyl. […] The effectiveness of this concentration was confirmed in acute cognitive dysfunction study in rats.

Aβ42 [7] = biological target: T1, Aβ42; experiment: TgCRND8 dose response, dosed 5-6 months once daily: Aβ42 in brain homogenates by ELISA; format: in vivo; details: CRND8 mice 5-6 months, oral
Protocol: Dose response was further examined in animals dosed from 5-6 months of age. Disease is more advanced at this later time point, so there may be greater clinical relevance. The dose levels investigated were 5, 10 and 30 mg/kg or vehicle, once daily. Accumulation of Aβ42 was assessed. • Reduction in amyloid accumulation in the brain: Levels of Aβ42 in brain homogenates were assessed by ELISA.

Question: With `OC1C(O)C(O)C(O)C(O)C1O` (stereo not shown) [AZD-103, scyllo-inositol] as the compound, how does the synaptic density (TgCRND8 mice [1]) read?
Answer: increased synaptic density

Question: And the “Plasma Aβ levels Aβ42” value (Aβ42 [2])?
Answer: 3035 ± 236 pg/mL

Question: What about the “mean elimination half-life (t1/2), range over doses” value (clinical; po) of the same compound?
Answer: 13 24

Question: And the CL/F (clinical; po, 500 mg)?
Answer: 13.67 ± 5.49 L/h

Question: And the CL/F (clinical; po, 1000 mg)?
Answer: 8.51 ± 2.78 L/h

Question: What about the CL/F (clinical; po, 2000 mg) of the same compound?
Answer: 9.59 ± 1.80 L/h

Question: And the CL/F (clinical; po, 3500 mg)?
Answer: 7.71 ± 1.59 L/h

Question: What about the CL/F (clinical; po, 5000 mg) of the same compound?
Answer: 10.04 ± 1.49 L/h

Question: And the Vd (clinical; male, 7000 mg)?
Answer: 214 L

Question: And the half-life (clinical; male, 7000 mg)?
Answer: 18.4 h

Question: And the “share of the AUC accounted for in the first 12 hrs” value (clinical; male, po)?
Answer: 80-85%

Question: What about the AUC(0-inf) (clinical; male, po, 500 mg) of the same compound?
Answer: 42.5 ± 22.1 µg·h/mL

Question: And the AUC(0-t) (clinical; male, po, 500 mg)?
Answer: 29.9 ± 7.11 µg·h/mL

Question: What about the Cmax (clinical; male, po, 500 mg) of the same compound?
Answer: 5.83 ± 1.83 µg/mL

Question: What about the MRT (clinical; male, po, 500 mg) of the same compound?
Answer: 19.1 ± 21.8 h

Question: What about the Tmax (clinical; male, po, 500 mg) of the same compound?
Answer: 4 ± 1.55 h

Question: What about the half-life (clinical; male, po, 500 mg) of the same compound?
Answer: 13.3 ± 16.7 h

Question: And the AUC(0-inf) (clinical; male, po, 1000 mg)?
Answer: 130 ± 44.4 µg·h/mL

Question: What about the Cmax (clinical; male, po, 1000 mg) of the same compound?
Answer: 17 ± 5.29 µg/mL

Question: What about the MRT (clinical; male, po, 1000 mg) of the same compound?
Answer: 19.7 ± 3.17 h

Question: What about the Tmax (clinical; male, po, 1000 mg) of the same compound?
Answer: 3.25 ± 1.47 h

Question: What about the half-life (clinical; male, po, 1000 mg) of the same compound?
Answer: 22.5 ± 5.75 h

Question: What about the AUC(0-inf) (clinical; male, po, 2000 mg) of the same compound?
Answer: 215 ± 41.9 µg·h/mL

Question: What about the AUC(0-t) (clinical; male, po, 2000 mg) of the same compound?
Answer: 194 ± 36.1 µg·h/mL

Question: And the Cmax (clinical; male, po, 2000 mg)?
Answer: 33.1 ± 7.57 µg/mL

Question: What about the MRT (clinical; male, po, 2000 mg) of the same compound?
Answer: 16.3 ± 3.99 h

Question: What about the Tmax (clinical; male, po, 2000 mg) of the same compound?
Answer: 2.75 ± 0.61 h

Question: And the half-life (clinical; male, po, 2000 mg)?
Answer: 23.9 ± 7.24 h

Question: What about the AUC(0-inf) (clinical; male, po, 3500 mg) of the same compound?
Answer: 467 ± 77.7 µg·h/mL

Question: What about the AUC(0-t) (clinical; male, po, 3500 mg) of the same compound?
Answer: 441 ± 71.4 µg·h/mL

Question: What about the Cmax (clinical; male, po, 3500 mg) of the same compound?
Answer: 74.6 ± 9.24 µg/mL

Question: What about the MRT (clinical; male, po, 3500 mg) of the same compound?
Answer: 11 ± 1.43 h

Question: What about the Tmax (clinical; male, po, 3500 mg) of the same compound?
Answer: 2.75 ± 0.61 h

Question: And the half-life (clinical; male, po, 3500 mg)?
Answer: 20.3 ± 3.09 h

Question: What about the AUC(0-inf) (clinical; male, po, 5000 mg) of the same compound?
Answer: 507 ± 72 µg·h/mL

Question: And the AUC(0-t) (clinical; male, po, 5000 mg)?
Answer: 491 ± 73.2 µg·h/mL

Question: And the Cmax (clinical; male, po, 5000 mg)?
Answer: 110 ± 26.9 µg/mL

Question: And the MRT (clinical; male, po, 5000 mg)?
Answer: 8.23 ± 2 h

Question: And the Tmax (clinical; male, po, 5000 mg)?
Answer: 2.42 ± 0.66 h

Question: What about the half-life (clinical; male, po, 5000 mg) of the same compound?
Answer: 16.9 ± 7.1 h

Question: What about the AUC(0-inf) (clinical; male, po, 7000 mg) of the same compound?
Answer: 885 ± 151 µg·h/mL

Question: And the AUC(0-t) (clinical; male, po, 7000 mg)?
Answer: 860 ± 148 µg·h/mL

Question: What about the Cmax (clinical; male, po, 7000 mg) of the same compound?
Answer: 155 ± 20.4 µg/mL

Question: What about the Tmax (clinical; male, po, 7000 mg) of the same compound?
Answer: 2.42 ± 0.67 h

Question: And the half-life (clinical; male, po, 7000 mg)?
Answer: 18.4 ± 4.64 h

Question: And the “brain levels of scyllo-inositol at 4 h following myo-inositol administration” value [3]?
Answer: not significantly changed

Question: And the “swim path lengths vs non-transgenic littermates” value (TgCRND8 mice [4]; TgCRND8 mice treated 28 days from 5 months, p=0.11)?
Answer: indistinguishable from non-transgenic littermates

Question: And the “behavioural performance (swim path length in the Morris Water Maze) vs untreated controls” value (TgCRND8 mice [4]; TgCRND8 mice, 28 days from 5 months, drinking water 10 mg/ml (approx. 900 mg/kg over 24 hours), p=0.01)?
Answer: significantly better behavioural performance

Question: What about the “Mean Plaque Size” value (plaque burden) of the same compound?
Answer: 336 ± 6* μm^2

Question: And the “Total Plaque Area” value (plaque burden)?
Answer: 420027 ± 14986* μm^2

Question: And the “growth of plaques by size distribution” value (Aβ plaque burden)?
Answer: effective at inhibiting the growth of plaques of all sizes

Question: And the “percent brain area covered in plaques” value (Aβ plaque burden; P=0.0001)?
Answer: significantly reduced

Question: With scyllo-inositol [AZD-103] as the compound, how does the “swim path length vs untreated controls” value (TgCRND8 mice [5]; TgCRND8 mice, 0.3 mg/kg/day, 28 days from 3 to 4 months) read?
Answer: indistinguishable from untreated controls

Question: What about the “effect on cognitive dysfunction and plaque burden” value (TgCRND8 mice [5]; TgCRND8 mice, 0.3 mg/kg/day, compared to untreated animals) of the same compound?
Answer: no observed effect

Question: What about the “effect on cognitive dysfunction and plaque burden” value (TgCRND8 mice [5]; TgCRND8 mice, 1.0 mg/kg/day) of the same compound?
Answer: partial effectiveness

Question: And the “swim path length on day 5 of training vs untreated animals” value (TgCRND8 mice [5]; TgCRND8 mice, 3.3 mg/kg/day, 28 days from 3 to 4 months, p=0.04)?
Answer: significantly shorter swim path length

Question: What about the “effect on cognitive dysfunction and plaque burden” value (TgCRND8 mice [5]; TgCRND8 mice, 3.3 mg/kg/day) of the same compound?
Answer: significant alleviation of cognitive dysfunction and reduction in plaque burden

Question: And the “dose providing efficacy in terms of behaviour and Aβ accumulation” value (TgCRND8 mice [5]; young CRND8 mice dosed 12-16 weeks of age, oral)?
Answer: 3.3 mg/kg/day

Question: What about the “dose providing effective alleviation of cognitive dysfunction (lowest dose administered orally)” value [6] of the same compound?
Answer: approximately 30 mg/kg/day

Question: What about the “lowest maximally-effective dose level” value (long term potentiation) of the same compound?
Answer: 5 µM

Question: What about the “dose showing maximum effectiveness at reducing plaques” value (Aβ42 [7]) of the same compound?
Answer: 30 mg/kg/day
